pIC50: −log10 of the molar value. Active and inactive are the calls of the source. The calls are words filed in the database; no cut-off is given here.
Columns and labels:
Substance-P receptor [1] = target: T1, Substance-P receptor (Homo sapiens, UniProt P25103); assay: Inhibition of substance P receptor at 100 uM
Substance-P receptor [2] = target: T1, Substance-P receptor; assay: Inhibition of substance P receptor

T1 sequence (P25103 whole entry): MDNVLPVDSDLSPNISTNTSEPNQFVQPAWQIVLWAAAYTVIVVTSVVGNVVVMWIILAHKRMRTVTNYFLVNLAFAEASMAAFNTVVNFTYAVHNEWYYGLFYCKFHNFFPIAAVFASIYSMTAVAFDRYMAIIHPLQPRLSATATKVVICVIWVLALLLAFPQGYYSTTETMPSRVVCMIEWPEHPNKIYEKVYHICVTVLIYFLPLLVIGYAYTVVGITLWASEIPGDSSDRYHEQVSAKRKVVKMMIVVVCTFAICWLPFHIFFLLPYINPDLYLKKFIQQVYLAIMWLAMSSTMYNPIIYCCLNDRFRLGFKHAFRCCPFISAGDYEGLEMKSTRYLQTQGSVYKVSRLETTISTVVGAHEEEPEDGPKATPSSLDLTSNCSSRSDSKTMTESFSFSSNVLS

SMILES	Activity (Substance-P receptor [1])	pIC50 (Substance-P receptor [2])
CN1C(=O)[C@@H]2C[C@@]3([C@@]45C[C@H]6C(=O)N(C)[C@@H](Cc7ccccc7)C(=O)N6[C@@H]4N(/C=C/c4ccccc4)c4ccccc45)c4ccccc4N[C@H]3N2C(=O)[C@@H]1Cc1ccccc1	inactive	–
O=C1N[C@@H](Cc2ccccc2)C(=O)N2[C@H]3Nc4ccccc4[C@@]3([C@]34C[C@H]5C(=O)N[C@@H](Cc6ccccc6)C(=O)N5[C@H]3Nc3ccccc34)C[C@@H]12	–	6.64
CN1C(=O)[C@@H]2C[C@@]3([C@@]45C[C@H]6C(=O)N(C)[C@@H](Cc7ccccc7)C(=O)N6[C@@H]4Nc4ccccc45)c4ccccc4N[C@H]3N2C(=O)[C@@H]1Cc1ccccc1 [DITRYPTOPHENALINE]	–	4.92

Reference: ChEMBL document CHEMBL1148057, “1'-(2-Phenyl-ethylene)-ditryptophenaline, a new dimeric diketopiperazine from Aspergillus flavus” (J Nat Prod, 1994)
